Laboratory results from patent US9198433B2, “Substituted benzene fungicides” (E I DU PONT DE NEMOURS AND COMPANY, priority 2007, dated 2015).
Like-named read-outs stand apart in the source and are kept apart here. Marks after values point to notes of the source that are not given here.

Key:
Assay type in all cases: in vivo
[1] = tested on: Botrytis cinerea; assay: Test F: tomato Botrytis, preventive spray on tomato seedlings, disease rating
Summary of the method: (§1)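 Disease ratings follow a preventive run-off spray of tomato seedlings. Compounds were first dissolved in acetone (3% of volume), then suspended in 50/50 acetone/water containing 250 ppm Trem 014. Test level 200 ppm (equivalent to 500 g/ha) except where marked * for 40 ppm or ** for 50 ppm.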

[2] = tested on: Puccinia recondita f. sp. tritici; assay: Test B: wheat leaf rust, preventive spray on wheat seedlings, disease rating
Summary of the method: (§2)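 Preventive spray to run-off on wheat seedlings; test suspension in acetone:water 50:50 plus 250 ppm surfactant, acetone predissolution at 3% of final volume. Dose 200 ppm (≈500 g/ha) by default, 40 ppm or 50 ppm where flagged.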

[3] = tested on: Septoria nodorum; assay: Test C: wheat glume blotch, preventive spray on wheat seedlings, disease rating
Summary of the method: as §2

[4] = tested on: Erysiphe graminis f. sp. tritici; assay: Test A: wheat powdery mildew, preventive spray on wheat seedlings, disease rating
Summary of the method: as §2

[5] = tested on: Fusarium graminearum; conditions: wheat head scab
[6] = tested on: Alternaria solani; assay: Test H: tomato early blight, preventive spray on tomato seedlings, disease rating
Summary of the method: as §1

[7] = tested on: Septoria tritici; assay: Test D: wheat leaf blotch, preventive spray on wheat seedlings, disease rating
Summary of the method: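 Preventive test: one day after run-off spraying (200 ppm, equal to 500 g/ha, unless marked 40 or 50 ppm; acetone/water plus 250 ppm Trem 014), seedlings received S. tritici spore inoculum. Disease scored after 48 h at 24 °C in saturated air and 19 further days at 20 °C.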

[8] = 200 ppm, 100 = 100% disease control, 0 = no control relative to controls
[9] = 40 ppm (*), 100 = 100% disease control, 0 = no control relative to controls

Compound	Percentage Disease Control, Test B ([2]; 40 ppm (*))	Percentage Disease Control, Test C ([3]; 40 ppm (*))	Percentage Disease Control, Test A ([4]; 40 ppm (*))	Percentage Disease Control, Test E ([5]; 40 ppm (*))	Percentage Disease Control, Test D ([7]; 40 ppm (*))	Percentage Disease Control, Test F ([1]; 200 ppm) [%]	Percentage Disease Control, Test C ([3]; 200 ppm) [%]	Percentage Disease Control, Test H ([6]; 200 ppm) [%]	further results
COC(=O)NOc1cc(-c2cccc(Cl)c2)ccc1Cl [Cmpd 19]	99* %	97* %	99* %	99* %	98* %	–	–	–	Percentage Disease Control, Test F ([1]; 40 ppm (*)): 0* %; Percentage Disease Control, Test H ([6]; 40 ppm (*)): 63* %
COC(=O)NCc1cc(-c2ccn(S(=O)(=O)N(C)C)n2)ccc1Cl [Cmpd 35]	–	–	–	–	–	0	0	0	Percentage Disease Control, Test B ([2]; 200 ppm): 76%; Percentage Disease Control, Test A ([4]; 200 ppm): 76%; Percentage Disease Control, Test E ([5]; 200 ppm): 0%; Percentage Disease Control, Test D ([7]; 200 ppm): 100%
COC(=O)NCc1cc(-c2ccn(CCCC(c3ccc(F)cc3)c3ccc(F)cc3)n2)ccc1Cl [Cmpd 36]	99* %	99* %	93* %	–	97* %	0	–	78	Percentage Disease Control, Test E ([5]; 200 ppm): 26%
COC(=O)NCc1cc(-c2ccn(Cc3ccccc3Cl)n2)ccc1Cl [Cmpd 37]	100* %	100* %	99* %	99* %	100* %	0	–	0	–
C#CCCCn1nc(-c2ccc(Cl)c(CNC(=O)OC)c2)cc1C [Cmpd 39]	100* %	99* %	99* %	91* %	100* %	0	–	0	–
COC(=O)NCc1cc(-c2cc(C)n(CCC[Si](C)(C)C)n2)ccc1Cl [Cmpd 40]	100* %	99* %	99* %	13* %	100* %	–	–	–	Percentage Disease Control, Test F ([1]; 40 ppm (*)): 0* %; Percentage Disease Control, Test H ([6]; 40 ppm (*)): 50* %
COC(=O)NCc1cc(-c2ccn(CCCC(C)C)n2)ccc1Cl [Cmpd 41]	100* %	–	–	99* %	98* %	0	100	0	Percentage Disease Control, Test A ([4]; 200 ppm): 99%
COC(=O)NCc1cc(-c2ccn(CCCc3ccccc3)n2)ccc1Cl [Cmpd 42]	100* %	100* %	98* %	100* %	100* %	0	–	0	–
COC(=O)NCc1cc(-c2ccn(CCCF)n2)ccc1Cl [Cmpd 43]	–	–	–	–	–	0	95	0	Percentage Disease Control, Test B ([2]; 200 ppm): 99%; Percentage Disease Control, Test A ([4]; 200 ppm): 91%; Percentage Disease Control, Test E ([5]; 200 ppm): 94%; Percentage Disease Control, Test D ([7]; 200 ppm): 93%
COC(=O)NCc1cc(-c2cc(C(F)(F)F)n(CCC[Si](C)(C)C)n2)ccc1Cl [Cmpd 45]	100* %	–	99* %	–	99* %	0	100	0	Percentage Disease Control, Test E ([5]; 200 ppm): 26%
CCCCn1ccc(-c2ccc(Cl)c(CNC(=O)OC)c2)n1 [Cmpd 46]	99* %	–	94* %	94* %	91* %	0	99	0	–
COC(=O)NCc1cc(-c2nn(CCC[Si](C)(C)C)cc2Cl)ccc1Cl [Cmpd 47]	100* %	100* %	98* %	–	99* %	0	–	66	Percentage Disease Control, Test E ([5]; 200 ppm): 94%
COC(=O)NCc1cc(-c2ccn(-c3ccc(C)cn3)n2)ccc1Cl [Cmpd 48]	100* %	99* %	65* %	94* %	99* %	–	–	–	Percentage Disease Control, Test F ([1]; 40 ppm (*)): 0* %; Percentage Disease Control, Test H ([6]; 40 ppm (*)): 99* %
COC(=O)NCc1cc(-c2ccn(-c3cccc(C)n3)n2)ccc1Cl [Cmpd 49]	100* %	–	–	99* %	100* %	0	99	–	Percentage Disease Control, Test A ([4]; 200 ppm): 79%; Percentage Disease Control, Test H ([6]; 40 ppm (*)): 99* %
COC(=O)NCc1cc(-c2ccn(-c3cccc(C(F)(F)F)c3)n2)ccc1Cl [Cmpd 50]	99* %	100* %	100* %	97* %	100* %	0	–	55	–
COC(=O)NCc1cc(-c2cnn(CCC[Si](C)(C)C)c2)ccc1Cl [Cmpd 126]	–	–	–	–	–	–	–	–	Percentage Disease Control, Test F [1, 8]: 0%; Percentage Disease Control, Test B [2, 9]: 98* %; Percentage Disease Control, Test C [3, 8]: 99%; Percentage Disease Control, Test A [4, 8]: 95%; Percentage Disease Control, Test E [5, 8]: 0%; Percentage Disease Control, Test H [6, 8]: 0%; Percentage Disease Control, Test D [7, 9]: 97* %
COC(=O)NCc1cc(C(C)=NOC[Si](C)(C)C)ccc1Cl [Compound 6]	100* %	96* %	99* %	68* %	100* %	–	–	–	–
CC[Si](C)(C)CON=C(C)c1ccc(Cl)c(CNC(=O)OC)c1 [Compound 7]	100* %	99* %	100* %	0* %	100* %	–	–	–	–
